Reference: PubChem BioAssay AID1918943 (Molecular Pharmacology Branch, DTP, NCI, 2023)
Values joined by “and” are separate entries in the source; they are usually repeats but may differ in a detail not shown here. Equal values may be shown once.

Test system: 855422-203-R-J1-PDC complex spheroid viability
Assay: Anticancer human tumor 855422-203-R-J1-PDC patient-derived bladder carcinoma cell line growth inhibition
Settings: for viability, T/C: stronger effect = lower value
In short: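 Complex spheroids of tumor cells with HUVEC and human MSCs, exposed to iadademstat combined with other agents. Each agent tested in half-log steps from near clinical Cmax (else 10 microM top), DMSO ≤0.25%.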

[1] = curve of first compound, second compound 0.1 µM
[2] = curve of first compound, second compound 0.316 µM
[3] = curve of first compound, second compound 1 µM
[4] = curve of first compound, second compound 3.16 µM
[5] = curve of first compound, second compound 10 µM
[6] = second compound 0.1 µM, first compound 0.00316 µM
[7] = second compound 0.1 µM, first compound 0.01 µM
[8] = second compound 0.1 µM, first compound 0.0316 µM
[9] = second compound 0.1 µM, first compound 0.1 µM
[10] = second compound 0.1 µM, first compound 0.316 µM
[11] = second compound 0.1 µM, first compound 1 µM
[12] = second compound 0.316 µM, first compound 0.00316 µM
[13] = second compound 0.316 µM, first compound 0.01 µM
[14] = second compound 0.316 µM, first compound 0.0316 µM
[15] = second compound 0.316 µM, first compound 0.1 µM
[16] = second compound 0.316 µM, first compound 0.316 µM
[17] = second compound 0.316 µM, first compound 1 µM
[18] = second compound 1 µM, first compound 0.00316 µM
[19] = second compound 1 µM, first compound 0.01 µM
[20] = second compound 1 µM, first compound 0.0316 µM
[21] = second compound 1 µM, first compound 0.1 µM
[22] = second compound 1 µM, first compound 0.316 µM
[23] = second compound 1 µM, first compound 1 µM
[24] = second compound 3.16 µM, first compound 0.00316 µM
[25] = second compound 3.16 µM, first compound 0.01 µM
[26] = second compound 3.16 µM, first compound 0.0316 µM
[27] = second compound 3.16 µM, first compound 0.1 µM
[28] = second compound 3.16 µM, first compound 0.316 µM
[29] = second compound 3.16 µM, first compound 1 µM
[30] = second compound 10 µM, first compound 0.00316 µM
[31] = second compound 10 µM, first compound 0.01 µM
[32] = second compound 10 µM, first compound 0.0316 µM
[33] = second compound 10 µM, first compound 0.1 µM
[34] = second compound 10 µM, first compound 0.316 µM
[35] = second compound 10 µM, first compound 1 µM
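Also: drug exposure lasted 7 days starting on day 3 after seeding.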
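For viability, T/C in this document: luminescence viability as percent of DMSO vehicle wells = 100%.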

SMILES: CCc1c2c(nc3ccc(O)cc13)-c1cc3c(c(=O)n1C2)COC(=O)[C@]3(O)CC + NC1CCC(NC2CC2c2ccccc2)CC1
- IC50 [1]: < 0.949 nM
- IC50 [2]: < 0.949 nM
- IC50 [3]: < 0.949 nM
- IC50 [4]: < 0.949 nM
- IC50 [5]: < 0.949 nM
- viability, T/C (second compound 0.1 µM, first compound 0.000949 µM): 21.1%
- viability, T/C (second compound 0.1 µM, first compound 0.003 µM): 16%
- viability, T/C (second compound 0.1 µM, first compound 0.00949 µM): 11.9%
- viability, T/C (second compound 0.1 µM, first compound 0.03 µM): 9.64%
- viability, T/C (second compound 0.1 µM, first compound 0.0949 µM): 6.14%
- viability, T/C (second compound 0.1 µM, first compound 0.3 µM): 2.74%
- viability, T/C (second compound 0.316 µM, first compound 0.000949 µM): 22.6%
- viability, T/C (second compound 0.316 µM, first compound 0.003 µM): 19.5%
- viability, T/C (second compound 0.316 µM, first compound 0.00949 µM): 12.3%
- viability, T/C (second compound 0.316 µM, first compound 0.03 µM): 9.27%
- viability, T/C (second compound 0.316 µM, first compound 0.0949 µM): 5.32%
- viability, T/C (second compound 0.316 µM, first compound 0.3 µM): 5.13%
- viability, T/C (second compound 1 µM, first compound 0.000949 µM): 23.6%
- viability, T/C (second compound 1 µM, first compound 0.003 µM): 17.3%
- viability, T/C (second compound 1 µM, first compound 0.00949 µM): 13.2%
- viability, T/C (second compound 1 µM, first compound 0.03 µM): 8.94%
- viability, T/C (second compound 1 µM, first compound 0.0949 µM): 7.12%
- viability, T/C (second compound 1 µM, first compound 0.3 µM): 2.09%
- viability, T/C (second compound 3.16 µM, first compound 0.000949 µM): 22.1%
- viability, T/C (second compound 3.16 µM, first compound 0.003 µM): 15.5%
- viability, T/C (second compound 3.16 µM, first compound 0.00949 µM): 11.4%
- viability, T/C (second compound 3.16 µM, first compound 0.03 µM): 9.39%
- viability, T/C (second compound 3.16 µM, first compound 0.0949 µM): 4.78%
- viability, T/C (second compound 3.16 µM, first compound 0.3 µM): 2.98%
- viability, T/C (second compound 10 µM, first compound 0.000949 µM): 20.7%
- viability, T/C (second compound 10 µM, first compound 0.003 µM): 12.2%
- viability, T/C (second compound 10 µM, first compound 0.00949 µM): 8.28%
- viability, T/C (second compound 10 µM, first compound 0.03 µM): 8.25%
- viability, T/C (second compound 10 µM, first compound 0.0949 µM): 4.8%
- viability, T/C (second compound 10 µM, first compound 0.3 µM): 1.43%

SMILES: COc1cc(Nc2ncc3c(n2)-c2ccc(Cl)cc2C(c2c(F)cccc2OC)=NC3)ccc1C(=O)O + NC1CCC(NC2CC2c2ccccc2)CC1
- IC50 [1]: > 1000 nM
- IC50 [2]: > 1000 nM
- IC50 [3]: > 1000 nM
- IC50 [4]: 892 nM
- IC50 [5]: > 1000 nM
- viability, T/C [6]: 81%
- viability, T/C [7]: 91.2%
- viability, T/C [8]: 78.8%
- viability, T/C [9]: 70.8%
- viability, T/C [10]: 64.5%
- viability, T/C [11]: 50.3%
- viability, T/C [12]: 88.1%
- viability, T/C [13]: 81.2%
- viability, T/C [14]: 66.4%
- viability, T/C [15]: 70.7%
- viability, T/C [16]: 64.2%
- viability, T/C [17]: 56.5%
- viability, T/C [18]: 95.7%
- viability, T/C [19]: 94.6%
- viability, T/C [20]: 67.8%
- viability, T/C [21]: 71.2%
- viability, T/C [22]: 61.5%
- viability, T/C [23]: 57%
- viability, T/C [24]: 76.3%
- viability, T/C [25]: 81.3%
- viability, T/C [26]: 70.8%
- viability, T/C [27]: 66.1%
- viability, T/C [28]: 59.4%
- viability, T/C [29]: 48.8%
- viability, T/C [30]: 83.2%
- viability, T/C [31]: 85.5%
- viability, T/C [32]: 64.8%
- viability, T/C [33]: 63%
- viability, T/C [34]: 57.7%
- viability, T/C [35]: 52.6%

SMILES: CC1(C)CCC(CN2CCN(c3ccc(C(=O)NS(=O)(=O)c4ccc(NCC5CCOCC5)c([N+](=O)[O-])c4)c(Oc4cnc5[nH]ccc5c4)c3)CC2)=C(c2ccc(Cl)cc2)C1
- viability, T/C (compound 0.0316 µM): 102% and 97.3%
- viability, T/C (compound 0.1 µM): 105% and 94.6%
- viability, T/C (compound 0.316 µM): 104% and 110%
- viability, T/C (compound 1 µM): 103% and 107%
- viability, T/C (compound 3.16 µM): 80.6% and 83.9%
- viability, T/C (compound 10 µM): 17.9% and 15.2%
- IC50 (curve of compound): 5550 nM and 5570 nM

SMILES: Cn1ncnc1C1c2n[nH]c(=O)c3cc(F)cc(c23)NC1c1ccc(F)cc1 (stereo unspecified) + NC1CCC(NC2CC2c2ccccc2)CC1
- IC50 [1]: > 100 nM
- IC50 [2]: > 100 nM
- IC50 [3]: > 100 nM
- IC50 [4]: > 100 nM
- IC50 [5]: > 100 nM
- viability, T/C (second compound 0.1 µM, first compound 0.000316 µM): 104%
- viability, T/C (second compound 0.1 µM, first compound 0.001 µM): 94.4%
- viability, T/C [6]: 97.1%
- viability, T/C [7]: 86.5%
- viability, T/C [8]: 78%
- viability, T/C [9]: 77.5%
- viability, T/C (second compound 0.316 µM, first compound 0.000316 µM): 90%
- viability, T/C (second compound 0.316 µM, first compound 0.001 µM): 92.4%
- viability, T/C [12]: 84.3%
- viability, T/C [13]: 83.9%
- viability, T/C [14]: 90.7%
- viability, T/C [15]: 82.3%
- viability, T/C (second compound 1 µM, first compound 0.000316 µM): 88%
- viability, T/C (second compound 1 µM, first compound 0.001 µM): 86.1%
- viability, T/C [18]: 109%
- viability, T/C [19]: 86.2%
- viability, T/C [20]: 92.9%
- viability, T/C [21]: 81.3%
- viability, T/C (second compound 3.16 µM, first compound 0.000316 µM): 89.4%
- viability, T/C (second compound 3.16 µM, first compound 0.001 µM): 97%
- viability, T/C [24]: 109%
- viability, T/C [25]: 78.2%
- viability, T/C [26]: 77.4%
- viability, T/C [27]: 74.8%
- viability, T/C (second compound 10 µM, first compound 0.000316 µM): 82.7%
- viability, T/C (second compound 10 µM, first compound 0.001 µM): 78.5%
- viability, T/C [30]: 101%
- viability, T/C [31]: 70.6%
- viability, T/C [32]: 74.6%
- viability, T/C [33]: 69.1%

SMILES: Nc1ccn(C2OC(CO)C(O)C2(F)F)c(=O)n1 (stereo unspecified)
- viability, T/C (compound 0.000949 µM): 90.2% and 96.5%
- viability, T/C (compound 0.003 µM): 59.8% and 55%
- viability, T/C (compound 0.00949 µM): 37.2% and 35.9%
- viability, T/C (compound 0.03 µM): 36.1% and 29.9%
- viability, T/C (compound 0.0949 µM): 29.3% and 22%
- viability, T/C (compound 0.3 µM): 19.9% and 16.3%
- IC50 (curve of compound): 5.5 nM and 4.42 nM

SMILES: CC1COCCN1c1cc(-c2ccnn2C)c2ccnc(-c3ccn[nH]3)c2n1 (stereo unspecified)
- viability, T/C (compound 0.00316 µM): 98.3% and 96.7%
- viability, T/C (compound 0.01 µM): 90.6% and 99.5%
- viability, T/C (compound 0.0316 µM): 90.2% and 105%
- viability, T/C (compound 0.1 µM): 46% and 48.9%
- viability, T/C (compound 0.316 µM): 32.3% and 26%
- viability, T/C (compound 1 µM): 25.3% and 22.9%
- IC50 (curve of compound): 91 nM and 97.7 nM

SMILES: CC1(C)CCC(CN2CCN(c3ccc(C(=O)NS(=O)(=O)c4ccc(NCC5CCOCC5)c([N+](=O)[O-])c4)c(Oc4cnc5[nH]ccc5c4)c3)CC2)=C(c2ccc(Cl)cc2)C1 + NC1CC1c1ccc(-c2cccc(O)c2)cc1
- IC50 [1]: 6250 nM
- IC50 [2]: 6320 nM
- IC50 [3]: 5810 nM
- IC50 [4]: 5770 nM
- IC50 [5]: 5480 nM
- viability, T/C [8]: 90.2%
- viability, T/C [9]: 104%
- viability, T/C [10]: 93.5%
- viability, T/C [11]: 94.5%
- viability, T/C (second compound 0.1 µM, first compound 3.16 µM): 95.5%
- viability, T/C (second compound 0.1 µM, first compound 10 µM): 18.6%
- viability, T/C [14]: 87%
- viability, T/C [15]: 101%
- viability, T/C [16]: 101%
- viability, T/C [17]: 103%
- viability, T/C (second compound 0.316 µM, first compound 3.16 µM): 97.2%
- viability, T/C (second compound 0.316 µM, first compound 10 µM): 18.6%
- viability, T/C [20]: 85.9%
- viability, T/C [21]: 92.1%
- viability, T/C [22]: 90.3%
- viability, T/C [23]: 91.5%
- viability, T/C (second compound 1 µM, first compound 3.16 µM): 88.4%
- viability, T/C (second compound 1 µM, first compound 10 µM): 15.8%
- viability, T/C [26]: 85.4%
- viability, T/C [27]: 87.3%
- viability, T/C [28]: 89.4%
- viability, T/C [29]: 91.1%
- viability, T/C (second compound 3.16 µM, first compound 3.16 µM): 94.6%
- viability, T/C (second compound 3.16 µM, first compound 10 µM): 13.8%
- viability, T/C [32]: 79.7%
- viability, T/C [33]: 82.9%
- viability, T/C [34]: 82.6%
- viability, T/C [35]: 82.5%
- viability, T/C (second compound 10 µM, first compound 3.16 µM): 84.8%
- viability, T/C (second compound 10 µM, first compound 10 µM): 14.5%
